Results from ChEMBL document CHEMBL3885881, “DrugMatrix”.

Species: Rattus norvegicus
Assay: DrugMatrix - Regimen: Daily Repeat
Assay type: toxicity, organism-based, Sprague-Dawley
Design: regimen Daily Repeat, gender Male, age 6-8 weeks
Conditions: in vivo, po, 38 mg/kg, route oral GAVAGE, dose level Low, vehicle 100 % WATER; for BASOPHIL / EOSINOPHIL / ERYTHROCYTE COUNT / HEMATOCRIT / HEMOGLOBIN / LEUKOCYTE COUNT / LYMPHOCYTE / MEAN CORPUSCULAR HEMOGLOBIN / MEAN CORPUSCULAR HEMOGLOBIN CONCENTRATION / MEAN CORPUSCULAR VOLUME / MONOCYTE / NEUTROPHIL / PLATELET COUNT: tissue Blood; for ALANINE AMINOTRANSFERASE / ALBUMIN / ALKALINE PHOSPHATASE / ASPARTATE AMINOTRANSFERASE / BLOOD UREA NITROGEN / CARBON DIOXIDE / CHLORIDE / CHOLESTEROL / CREATINE PHOSPHOKINASE / CREATININE / GLUCOSE / LACTATE DEHYDROGENASE / LIPASE / PHOSPHORUS / POTASSIUM / SODIUM / TOTAL BILIRUBIN / TOTAL PROTEIN / URIC ACID: tissue Plasma

O=C(O)C1CC1 [CYCLOPROPANE CARBOXYLIC ACID]
BASOPHIL (72 h, time 3 day): 0%
EOSINOPHIL (72 h, time 3 day): 0.67%
ERYTHROCYTE COUNT (72 h, time 3 day): 7.06 x10E6/uL
HEMATOCRIT (72 h, time 3 day): 43.67%
HEMOGLOBIN (72 h, time 3 day): 14.6 G/DL
LEUKOCYTE COUNT (72 h, time 3 day): 8.63 x10E3/uL
LYMPHOCYTE (72 h, time 3 day): 83.67%
MEAN CORPUSCULAR HEMOGLOBIN (72 h, time 3 day): 20.67 pg
MEAN CORPUSCULAR HEMOGLOBIN CONCENTRATION (72 h, time 3 day): 33.47 G/DL
MEAN CORPUSCULAR VOLUME (72 h, time 3 day): 61.77 fL
MONOCYTE (72 h, time 3 day): 2.33%
NEUTROPHIL (72 h, time 3 day): 13.33%
PLATELET COUNT (72 h, time 3 day): 1012 x10E3/uL
ALANINE AMINOTRANSFERASE (72 h, time 3 day): 44.67 u/L
ALBUMIN (72 h, time 3 day): 4.37 G/DL
ALKALINE PHOSPHATASE (72 h, time 3 day): 346.67 u/L
ASPARTATE AMINOTRANSFERASE (72 h, time 3 day): 72.33 u/L
BLOOD UREA NITROGEN (72 h, time 3 day): 15 mg/dL
CARBON DIOXIDE (72 h, time 3 day): 23 mmol/L
CHLORIDE (72 h, time 3 day): 103.67 MEQ/L
CHOLESTEROL (72 h, time 3 day): 65.67 mg/dL
CREATINE PHOSPHOKINASE (72 h, time 3 day): 241.33 u/L
CREATININE (72 h, time 3 day): 0.3 mg/dL
GLUCOSE (72 h, time 3 day): 151 mg/dL
LACTATE DEHYDROGENASE (72 h, time 3 day): 152.33 u/L
LIPASE (72 h, time 3 day): 9 u/L
PHOSPHORUS (72 h, time 3 day): 9.83 mg/dL
POTASSIUM (72 h, time 3 day): 5.7 MEQ/L
SODIUM (72 h, time 3 day): 145.67 MEQ/L
TOTAL BILIRUBIN (72 h, time 3 day): 0.1 mg/dL
TOTAL PROTEIN (72 h, time 3 day): 6.03 G/DL
URIC ACID (72 h, time 3 day): 1.1 mg/dL
BASOPHIL (120 h, time 5 day): 0.33%
EOSINOPHIL (120 h, time 5 day): 1%
ERYTHROCYTE COUNT (120 h, time 5 day): 7.12 x10E6/uL
HEMATOCRIT (120 h, time 5 day): 44.63%
HEMOGLOBIN (120 h, time 5 day): 14.4 G/DL
LEUKOCYTE COUNT (120 h, time 5 day): 10.9 x10E3/uL
LYMPHOCYTE (120 h, time 5 day): 85%
MEAN CORPUSCULAR HEMOGLOBIN (120 h, time 5 day): 20.2 pg
MEAN CORPUSCULAR HEMOGLOBIN CONCENTRATION (120 h, time 5 day): 32.27 G/DL
MEAN CORPUSCULAR VOLUME (120 h, time 5 day): 62.67 fL
MONOCYTE (120 h, time 5 day): 2.33%
NEUTROPHIL (120 h, time 5 day): 12.33%
PLATELET COUNT (120 h, time 5 day): 970.67 x10E3/uL
ALANINE AMINOTRANSFERASE (120 h, time 5 day): 47.33 u/L
ALBUMIN (120 h, time 5 day): 4.6 G/DL
ALKALINE PHOSPHATASE (120 h, time 5 day): 373.67 u/L
ASPARTATE AMINOTRANSFERASE (120 h, time 5 day): 86 u/L
BLOOD UREA NITROGEN (120 h, time 5 day): 17.33 mg/dL
CARBON DIOXIDE (120 h, time 5 day): 20.67 mmol/L
CHLORIDE (120 h, time 5 day): 99.33 MEQ/L
CHOLESTEROL (120 h, time 5 day): 73.67 mg/dL
CREATINE PHOSPHOKINASE (120 h, time 5 day): 418 u/L
CREATININE (120 h, time 5 day): 0.3 mg/dL
GLUCOSE (120 h, time 5 day): 133.33 mg/dL
LACTATE DEHYDROGENASE (120 h, time 5 day): 454 u/L
LIPASE (120 h, time 5 day): 9 u/L
PHOSPHORUS (120 h, time 5 day): 10.13 mg/dL
POTASSIUM (120 h, time 5 day): 5.37 MEQ/L
SODIUM (120 h, time 5 day): 143.33 MEQ/L
TOTAL BILIRUBIN (120 h, time 5 day): 0.1 mg/dL
TOTAL PROTEIN (120 h, time 5 day): 6.53 G/DL
URIC ACID (120 h, time 5 day): 1.03 mg/dL
